Experimental data published in patent US5776720A, “Assay reagent” (priority 1995, dated 1998).
“And” between values parts separate entries of the source, which are not always exact repeats. Identical values can stand only once. Numbered stars: 1 amine (or outer) side, 2 acyl side, 3 side chain; on linkers, the order of the positions; unused ones are H or OH. Bridge positions count the residues as written; N and C are the ends. Peptide text beside a SMILES is read from it. I, II: the chains in the order shown. Rhodamine110 = O=C1OC2(c3ccc(N[*:1])cc3Oc3cc(N[*:2])ccc32)c2ccccc21

Experiments:
Assay type in all cases: cell-based, human
[1] = tested on: Ala-aminopeptidase and Lys-aminopeptidase, Dipeptidyl peptidase IV and Cathepsin D; assay: Panel of substrates in normals and HIV+ patients (Table 4)
Experimental: A panel of assay compounds are assembled consisting of Ala-aminopeptidase and Lys-aminopeptidase, Dipeptidyl peptidase IV (Ala-Ala)2 rhodamine 110 and Cathepsin D to indicate possible TB infection in AIDS related cases.
A panel of enzymatic substrates is performed consisting of Ala-aminopeptidase and Lys-aminopeptidase, Dipeptidyl peptidase IV (Ala-Ala)2 rhodamine 110 and Cathepsin D to indicate possible TB infection in AIDS related cases.

erythrocytes = assay: Normal erythrocyte enzyme activity (Table 3B); conditions: normal donors
Experimental: A sample, consisting of whole blood (in EDTA, Heparin or ACD) or dissociated tissue or body fluids (synovial fluid) or cell culture media is obtained and stored in a manner so as not to decrease viability. The sample is washed sufficiently to remove plasma, media, body fluid, debris and extra-cellular enzymes. The wash media consists of a physiologically balanced buffered salt solution. The washed cells are incubated at 37° C. 50 μL of sample and 25 μL of substrate media are mixed together and allowed to incubate at 37° C. for a predetermined amount of time. At the end of the incubation period, the sample is then measured for fluorescence.
(§1) A normal in house adult donor pool was drawn, recording sex and determining that no known disease state was present at the time of sample draw. Criteria for rejecting samples included patients under medication, patients with infection or inflammation of any type, colds and flu as well as any known medical illness such as cancer, heart ailment and high blood pressure. A donor list of 75 patients has been developed and a mean and 2 sd range established. A subgroup of "super normals" was developed from this list by examining the 75 patients to determine which group falls closest to the mean for all enzymes in all cell types tested. These patients were used as the "wellness index" or best group of "normalcy" patients. If a study required the use of children or newborns then this same format was used to develop a data base for these age groups.

granulocytes = assay: Normal leukocyte enzyme activity (Table 3A), granulocytes; set-up: unit not given here; conditions: normal donors
Source text: (§2) The measured fluorescence intensity can be converted from mean channel fluorescence (in peak or integrated mode) to MESF (molecules of equivalent soluble fluorochrome, Flow Cytometry Standards Corp. , San Juan, Puerto Rico) or International Units of hydrolysis per cell. A normal range of enzyme activity is established by assaying males and females in sufficient quantity to characterize the population levels statistically.
as §1

lymphocytes = assay: Normal leukocyte enzyme activity (Table 3A), lymphocytes; set-up: unit not given here; conditions: normal donors
Source text: as §2, §1

monocytes = assay: Normal leukocyte enzyme activity (Table 3A), monocytes; set-up: unit not given here; conditions: normal donors
Source text: as §2, §1

granulocyte = assay: Peptidases to distinguish leukemia from non-leukemia (Table 6C), grans
Source text: Artificial intelligence was used to analyze data of cellular enzyme functions, and determine normal and disease states. Peptidases were used to distinguish leukemia from non-leukemia (output pattern). For input patterns lymphocyte and granulocyte cell types were used with aminopeptidases, cathepsins and dipeptidylpeptidase enzyme activities. In this Example, illustrated in Tables 6A-6C, three normals and three leukemia patients were used as known output patterns for the neural network to learn (in practice, the larger the learning set the more accurate unknown prediction will be). Unknowns were then presented to the learned algorithm as shown in the test case examples. Clinical diagnosis was confirmed by physicians. The trained neural network was able to correctly classify the leukemia from the non-leukemia.

GRANS = assay: Aberrant enzyme activities in febrile children (Table 7), grans
MONOS = assay: Aberrant enzyme activities in febrile children (Table 7), monos

Row | Compound | NORMAL E[…] ACTIVITY MEAN (erythrocytes) | NORMAL LEUKOCYTE ENZYME ACTIVITY, GRANS Mean (granulocytes) | NORMAL LEUKOCYTE ENZYME ACTIVITY, LYMPHS Mean (lymphocytes) | NORMAL LEUKOCYTE ENZYME ACTIVITY, MONOS Mean (monocytes) | further results
1 | NC(=O)CC[C@H](N)C(=O)N[C@@H](CO)C(=O)Nc1ccc2c(c1)Oc1cc(NC(=O)[C@H](CO)NC(=O)[C@@H](N)CCC(N)=O)ccc1C21OC(=O)c2ccccc21 (relative stereo) [GLN--SER*] |  |  |  |  | MEAN DELTA FL ([1]; HIV + PATIENTS): 13.7 and 12.7; MEAN DELTA FL ([1]; NORMALS): 11.9 and 6.1
2 | O=C1OC2(c3ccc(OC4O[C@H](CO)[C@@H](O)[C@H](O)[C@H]4O)cc3Oc3cc(OC4O[C@H](CO)[C@@H](O)[C@H](O)[C@H]4O)ccc32)c2ccccc21 (stereo partly drawn) [DIGLUC (FL)] | 0.110 | 0.45 | 0.23 | 1.89 | 
3 | O=C1OC2(c3ccc(OP(=O)(O)O)cc3Oc3cc(OP(=O)(O)O)ccc32)c2ccccc21 [DPO4, (PO4)2 fluorescein] | 0.151 | 85.42 | 54.29 | 148.32 | 
4 | CC(=O)Oc1ccc2c(c1)Oc1cc(OC(C)=O)ccc1C21OC(=O)c2ccccc21 [FDA, fluorescein diacetate, reference compound] | 0.126 | 68.37 | 13.38 |  | 
5 | CC(=O)Oc1ccc2c(c1)Oc1cc(OC(C)=O)ccc1C21OC(=O)c2ccccc21 [FDA--NAF, fluorescein diacetate, reference compound] | 0.136 | 81.99 | 17.98 | 93.36 | 
6 | C[C@H](NC(=O)CNC(=O)[C@H](Cc1ccccc1)NC(=O)CN)C(=O)Nc1ccc2c(c1)Oc1cc(NC(=O)[C@H](C)NC(=O)CNC(=O)[C@H](Cc3ccccc3)NC(=O)CN)ccc1C21OC(=O)c2ccccc21 [GFGA, (Gly-Phe-Gly-Ala)2 Rho 110] (I: H-GFGA / II: H-GFGA; linker I:C-II:C via Rhodamine110) | 0.131 |  |  | 1.01 | 
7 | NCC(=O)Nc1ccc2c(c1)Oc1cc(NC(=O)CN)ccc1C21OC(=O)c2ccccc21 [GLY, (Gly)2 Rho 110] |  | 29.48 | 18.18 |  | enzyme activity (granulocyte; N192 NORMAL): 48.67
8 | CC(C)C[C@H](NC(=O)[C@@H]1CCCN1C(=O)CN)C(=O)NCC(=O)N1CCC[C@H]1C(=O)Nc1ccc2c(c1)Oc1cc(NC(=O)[C@@H]3CCCN3C(=O)CNC(=O)[C@H](CC(C)C)NC(=O)[C@@H]3CCCN3C(=O)CN)ccc1C21OC(=O)c2ccccc21 [GPLGP, (H--Gly--Pro--Leu--Gly--Pro)2 Rho 110.2TFA] (I: H-GPLGP / II: H-GPLGP; linker I:C-II:C via Rhodamine110) | 0.164 | 16.88 | 8.97 | 23.38 | 
9 | CC(C)C[C@H](NC(=O)CNC(=O)[C@@H](N)CC(C)C)C(=O)NCC(=O)Nc1ccc2c(c1)Oc1cc(NC(=O)CNC(=O)[C@H](CC(C)C)NC(=O)CNC(=O)[C@@H](N)CC(C)C)ccc1C21OC(=O)c2ccccc21 [LGLG, (H--L--Leu--Gly--Leu--Gly)2 Rho 110.2TFA] (I: H-LGLG / II: H-LGLG; linker I:C-II:C via Rhodamine110) | 0.122 | 4.08 | 1.42 | 11.36 | 
10 | CC(C)C[C@H](N)C(=O)NCC(=O)Nc1ccc2c(c1)Oc1cc(NC(=O)CNC(=O)[C@@H](N)CC(C)C)ccc1C21OC(=O)c2ccccc21 [LG] |  | 29.99 | 13.83 | 44.56 | enzyme activity (granulocyte; N193 NORMAL): 3.55; enzyme activity (granulocyte; N199* NORMAL (later found to have cervical cancer)): 2.02
11 | NCCCC[C@H](N)C(=O)Nc1ccc2c(c1)Oc1cc(NC(=O)[C@@H](N)CCCCN)ccc1C21OC(=O)c2ccccc21 [LYS, (H--L--Lys)2 Rho 110.4TFA] |  | 4.27 | 1.16 | 7.56 | enzyme activity (granulocyte; N194 NORMAL): 1.66
12 | N=C(N)NCCC[C@H](N)C(=O)NCC(=O)N[C@@H](CCC(=O)O)C(=O)N[C@@H](CO)C(=O)Nc1ccc2c(c1)Oc1cc(NC(=O)[C@H](CO)NC(=O)[C@H](CCC(=O)O)NC(=O)CNC(=O)[C@@H](N)CCCNC(=N)N)ccc1C21OC(=O)c2ccccc21 (stereo partly drawn) [RGES, (Arg-Gly-Glu-Ser)2 Rho 110] (I: H-RGES / II: H-RGES; linker I:C-II:C via Rhodamine110) | 0.118 | 3.96 | 1.43 | 8.37 | 
13 | N=C(N)NCCC[C@H](NC(=O)OCc1ccccc1)C(=O)Nc1ccc2c(c1)Oc1cc(NC(=O)[C@H](CCCNC(=N)N)NC(=O)OCc3ccccc3)ccc1C21OC(=O)c2ccccc21 (stereo partly drawn) [Z--ARG] | 0.106 | 7.22 | 2.02 | 16.80 | 
14 | C[C@@H](O)[C@H](NC(=O)OCc1ccccc1)C(=O)N1CCC[C@H]1C(=O)Nc1ccc2c(c1)Oc1cc(NC(=O)[C@@H]3CCCN3C(=O)[C@@H](NC(=O)OCc3ccccc3)[C@@H](C)O)ccc1C21OC(=O)c2ccccc21 [Z--TP6.5, (carbobenzyloxycarbonyl-Thr-Pro)2 Rho 110 (pH 6.5)] |  | 58.05 | 21.97 | 49.69 | 
15 | (Val-Lys)2 Rho 110 (modified) [VK--M] |  | 4.31 | 2.05 | 43.37 | 
16 | (carbobenzyloxycarbonyl-Gly-Pro)2 Rho 110 (modified) [Z--GP--M] |  | 130.62 | 53.74 | 119.81 | 
17 | ALA--GLY* |  |  |  |  | MEAN DELTA FL ([1]; HIV + PATIENTS): 29.7; MEAN DELTA FL ([1]; HIV + PATIENTS, listed as ALA--GLY****): 39.9; MEAN DELTA FL ([1]; NORMALS): 31.6; MEAN DELTA FL ([1]; NORMALS, listed as ALA--GLY****): 48.0
18 | dichlorofluorescein | 0.268 |  |  |  | aberrant enzyme activity (GRANS; P89 Viral Stomatitis): + (>0.25 Increase over normal range); aberrant enzyme activity (GRANS; P92 Adenitis): + (>0.25 Increase over normal range); aberrant enzyme activity (GRANS; P95 Viral Syndrome): + (>0.25 Increase over normal range); aberrant enzyme activity (GRANS; P96 Viral Syndrome): + (>0.25 Increase over normal range); aberrant enzyme activity (GRANS; P97 Pyelonephritis): + (>0.25 Increase over normal range); aberrant enzyme activity (GRANS; P101 Fever-Unknown Origin): + (>0.25 Increase over normal range); aberrant enzyme activity (GRANS; P103 Viral Syndrome): + (>0.25 Increase over normal range); aberrant enzyme activity (MONOS; P89 Viral Stomatitis): + (>0.25 Increase over normal range); aberrant enzyme activity (MONOS; P92 Adenitis): + (>0.25 Increase over normal range); aberrant enzyme activity (MONOS; P95 Viral Syndrome): + (>0.25 Increase over normal range); aberrant enzyme activity (MONOS; P96 Viral Syndrome): + (>0.25 Increase over normal range); aberrant enzyme activity (MONOS; P97 Pyelonephritis): + (>0.25 Increase over normal range); aberrant enzyme activity (MONOS; P101 Fever-Unknown Origin): + (>0.25 Increase over normal range); aberrant enzyme activity (MONOS; P103 Viral Syndrome): °
